Measured values from ChEMBL document CHEMBL1128749, “1-Aminoindan-1,5-dicarboxylic acid: a novel antagonist at phospholipase C-linked metabotropic glutamate receptors” (J Med Chem, 1995).

Experiments:
[1] = target: T1, Metabotropic glutamate receptor 2 (Homo sapiens, UniProt Q14416); assay: Ability to inhibit mGluR2-alpha induced cAMP formation was determined at BHK cells at 100 Micro M Concentration; Not effective at the highest concentration tested (100 uM); assay type: functional, cell-based, Mesocricetus auratus
[2] = target: T2, Metabotropic glutamate receptor 1 (Homo sapiens, UniProt Q13255); assay: Ability to inhibit mGluR1-alpha-mediated PI (phospho inositol) hydrolysis was determined at BHK cells at 100 Micro M Concentration; assay type: functional, cell-based, Mesocricetus auratus
[3] = target: T3, Metabotropic glutamate receptor 4 (Homo sapiens, UniProt Q14833); assay: Ability to inhibit mGluR4-alpha induced cAMP formation was determined at BHK cells at 100 Micro M Concentration; Not effective at the highest concentration tested (100 uM); assay type: functional, cell-based, Mesocricetus auratus
[4] = target: T3, Metabotropic glutamate receptor 4; assay: Ability to inhibit mGluR4-alpha induced cAMP formation was determined at BHK cells at 100 Micro M Concentration; assay type: functional, cell-based, Mesocricetus auratus
[5] = target: T1, Metabotropic glutamate receptor 2; assay: Ability to inhibit mGluR2-alpha induced cAMP formation was determined at BHK cells at 100 Micro M Concentration; assay type: functional, cell-based, Mesocricetus auratus
[6] = target: T2, Metabotropic glutamate receptor 1; assay: Ability to inhibit mGluR1-alpha-mediated PI (phospho inositol) hydrolysis was determined at BHK cells at 100 Micro M Concentration; Not effective at the highest concentration tested (100 uM); assay type: functional, cell-based, Mesocricetus auratus
[7] = target: T1, Metabotropic glutamate receptor 2; assay: Ability to inhibit mGluR2-alpha induced cAMP formation was determined at BHK cells at 100 Micro M Concentration; Not effective at the highest concentration tested (100 µM)

T1 sequence (Q14416 whole entry): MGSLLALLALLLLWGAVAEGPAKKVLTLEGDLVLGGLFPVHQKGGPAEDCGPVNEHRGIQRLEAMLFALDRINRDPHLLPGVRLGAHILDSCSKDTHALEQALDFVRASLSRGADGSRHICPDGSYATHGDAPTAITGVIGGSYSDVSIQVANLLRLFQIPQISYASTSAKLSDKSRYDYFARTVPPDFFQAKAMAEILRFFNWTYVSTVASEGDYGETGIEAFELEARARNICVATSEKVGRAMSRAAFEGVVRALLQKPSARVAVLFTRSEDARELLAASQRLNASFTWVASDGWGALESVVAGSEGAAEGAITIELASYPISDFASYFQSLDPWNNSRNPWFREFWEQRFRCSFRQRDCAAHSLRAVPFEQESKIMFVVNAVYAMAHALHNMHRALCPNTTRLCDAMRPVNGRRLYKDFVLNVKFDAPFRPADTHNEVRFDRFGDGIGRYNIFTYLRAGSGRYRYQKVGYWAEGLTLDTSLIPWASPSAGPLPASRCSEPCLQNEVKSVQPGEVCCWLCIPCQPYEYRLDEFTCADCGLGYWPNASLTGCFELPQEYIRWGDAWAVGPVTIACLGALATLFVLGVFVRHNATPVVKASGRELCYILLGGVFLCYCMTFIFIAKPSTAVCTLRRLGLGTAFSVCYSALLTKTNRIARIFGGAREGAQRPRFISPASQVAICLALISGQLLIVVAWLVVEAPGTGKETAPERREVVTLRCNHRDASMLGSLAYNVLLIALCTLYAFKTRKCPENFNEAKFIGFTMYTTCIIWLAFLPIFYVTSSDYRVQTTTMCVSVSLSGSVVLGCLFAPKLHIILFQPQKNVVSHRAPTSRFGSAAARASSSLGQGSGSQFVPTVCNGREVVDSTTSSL
T2 sequence (Q13255 whole entry): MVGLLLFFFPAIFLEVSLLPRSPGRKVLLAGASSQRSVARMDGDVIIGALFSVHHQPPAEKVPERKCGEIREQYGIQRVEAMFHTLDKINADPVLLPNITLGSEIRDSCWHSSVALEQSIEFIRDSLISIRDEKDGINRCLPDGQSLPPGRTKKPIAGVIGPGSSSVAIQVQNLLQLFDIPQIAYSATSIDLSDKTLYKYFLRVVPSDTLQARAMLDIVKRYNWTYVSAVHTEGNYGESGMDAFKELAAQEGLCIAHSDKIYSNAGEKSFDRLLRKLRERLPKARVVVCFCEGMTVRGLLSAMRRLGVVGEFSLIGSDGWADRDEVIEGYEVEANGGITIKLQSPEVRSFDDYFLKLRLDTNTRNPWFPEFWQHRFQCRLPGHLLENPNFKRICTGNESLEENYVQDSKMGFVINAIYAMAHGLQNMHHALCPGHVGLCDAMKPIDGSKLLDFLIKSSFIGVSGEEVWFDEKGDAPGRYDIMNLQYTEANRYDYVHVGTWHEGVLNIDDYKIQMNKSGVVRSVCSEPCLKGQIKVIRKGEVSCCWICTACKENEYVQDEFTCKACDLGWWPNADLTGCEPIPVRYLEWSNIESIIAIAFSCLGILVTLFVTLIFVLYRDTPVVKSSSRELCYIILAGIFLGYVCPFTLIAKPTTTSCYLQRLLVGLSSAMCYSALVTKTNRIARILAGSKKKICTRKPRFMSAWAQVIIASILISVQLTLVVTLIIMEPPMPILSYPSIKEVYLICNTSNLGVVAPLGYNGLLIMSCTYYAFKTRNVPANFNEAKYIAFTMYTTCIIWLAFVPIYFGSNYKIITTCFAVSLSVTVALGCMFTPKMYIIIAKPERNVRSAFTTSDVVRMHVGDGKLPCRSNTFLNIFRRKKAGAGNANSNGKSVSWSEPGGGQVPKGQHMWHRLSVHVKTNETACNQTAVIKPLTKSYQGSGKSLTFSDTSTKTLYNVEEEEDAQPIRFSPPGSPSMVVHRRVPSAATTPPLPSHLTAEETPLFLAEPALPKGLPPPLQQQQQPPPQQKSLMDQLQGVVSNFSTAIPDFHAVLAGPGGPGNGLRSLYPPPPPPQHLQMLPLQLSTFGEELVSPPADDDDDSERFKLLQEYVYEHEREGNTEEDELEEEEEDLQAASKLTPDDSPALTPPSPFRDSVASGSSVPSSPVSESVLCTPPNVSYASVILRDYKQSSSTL
T3 sequence (Q14833 whole entry): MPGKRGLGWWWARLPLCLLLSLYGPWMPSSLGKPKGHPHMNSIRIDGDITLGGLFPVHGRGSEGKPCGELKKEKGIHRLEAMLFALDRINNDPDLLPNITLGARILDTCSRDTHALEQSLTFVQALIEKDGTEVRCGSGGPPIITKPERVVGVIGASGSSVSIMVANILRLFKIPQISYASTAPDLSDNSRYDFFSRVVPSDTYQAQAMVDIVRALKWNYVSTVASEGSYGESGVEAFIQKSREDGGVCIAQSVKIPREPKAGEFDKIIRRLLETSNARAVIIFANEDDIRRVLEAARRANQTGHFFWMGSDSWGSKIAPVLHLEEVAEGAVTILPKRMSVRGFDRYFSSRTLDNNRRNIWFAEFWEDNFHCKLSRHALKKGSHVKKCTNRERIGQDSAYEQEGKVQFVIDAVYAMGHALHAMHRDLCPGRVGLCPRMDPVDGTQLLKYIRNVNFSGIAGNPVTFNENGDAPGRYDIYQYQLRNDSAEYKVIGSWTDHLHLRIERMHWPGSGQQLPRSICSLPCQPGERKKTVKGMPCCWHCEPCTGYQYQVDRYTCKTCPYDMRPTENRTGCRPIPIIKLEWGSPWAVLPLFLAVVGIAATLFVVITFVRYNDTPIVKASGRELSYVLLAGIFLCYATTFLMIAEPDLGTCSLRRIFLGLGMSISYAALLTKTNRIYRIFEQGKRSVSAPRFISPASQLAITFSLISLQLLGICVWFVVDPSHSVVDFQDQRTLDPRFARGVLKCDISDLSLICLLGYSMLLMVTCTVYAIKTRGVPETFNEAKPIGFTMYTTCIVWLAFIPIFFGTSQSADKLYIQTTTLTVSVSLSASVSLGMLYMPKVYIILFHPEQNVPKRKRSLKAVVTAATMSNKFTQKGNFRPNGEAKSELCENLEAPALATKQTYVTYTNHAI

| Compound | IC50 [1] | IC50 [2] [µM] | IC50 [3] | IC50 [4] [µM] | IC50 [5] [µM] | IC50 [6] | IC50 [7] |
| --- | --- | --- | --- | --- | --- | --- | --- |
| NC1(C(=O)O)CCc2cc(C(=O)O)ccc21 (stereo not drawn) | No effect | 7 | No effect | – | – | – | – |
| NC1(C(=O)O)CCc2ccc(C(=O)O)cc21 (stereo not drawn) | – | – | No effect | – | – | No effect | No effect |
| NC1(C(=O)O)CCc2c(C(=O)O)cccc21 (stereo not drawn) | No effect | – | No effect | – | – | No effect | – |

Next, values leading:

| IC50 [1] | IC50 [2] [µM] | IC50 [3] | IC50 [4] [µM] | IC50 [5] [µM] | IC50 [6] | IC50 [7] | Compound |
| --- | --- | --- | --- | --- | --- | --- | --- |
| – | 40 | – | > 1000 | 48 | – | – | NC(C(=O)O)c1ccc(C(=O)O)c(O)c1 (stereo not drawn) |
| – | 155 | – | > 1000 | 340 | – | – | CC(N)(C(=O)O)c1ccc(C(=O)O)cc1 (stereo not drawn) |
| – | 65 | – | > 1000 | 577 | – | – | NC(C(=O)O)c1ccc(C(=O)O)cc1 (stereo not drawn) |
